The values that follow come from patent publication US20110092546A1, “SUBSTITUTED BENZIMIDAZOLES FOR NEUROFIBROMATOSIS” (NOVARTIS AG, priority 2008, published 2011).

pEC50: −log10 of the molar value. Read-outs that look alike come from different tables or passages of the source.

The subject of test [1] is ST88 cells. Particulars: ST88 cells (NF1+/−); cited from earlier work.
For a further test, the system named is NF90 cells. The note with it: NF90 cells (NF1+/−); cited from earlier work.
Test [2] has as its system phospho-MEK in ST88 cells. As to the kind of experiment: phospho-MEK ELISA in ST88 cells. The test is classed as cell-based. The source says: (§1) The ST88 cell line (NF1^+/−) contains elevated levels of Ras-GTP and is often used as a pre-clinical model for NF1. […] Pathway inhibition and anti-proliferative activity of RAF265 in ST88 cells.
The subject of test [3] is phospho-ERK in ST88 cells. The test can be described thus: phospho-ERK ELISA in ST88 cells. Format: cell-based.
Source text: as §1
On the technique in general: An ELISA detects its analyte on a solid surface through an enzyme-linked reagent.

Test [4] concerns ST88 cells. As to the kind of experiment: Proliferation of ST88 cells. The test is classed as cell-based.
Source text: as §1

In test [5] the test system is VEGF-induced angiogenesis in Matrigel plug. The test can be described thus: VEGF-CHO Matrigel plug angiogenesis model in mice (hemoglobin, Drabkin's reagent). The test is classed as in vivo. Particulars: treated days 1 and 4, plugs excised day 5. The source says:
Due to the inhibition of VEGFR-2, RAF265 also has anti-angiogenic activity which may also provide a therapeutic benefit in treating neurofibromas. To confirm that RAF265 inhibits the growth of new blood vessels (i.e., angiogenesis) in vivo, mice were implanted with Matrigel® containing Chinese hamster ovary cells (CHO) overexpressing VEGF and then treated mice with a dose range of RAF265 or a vehicle control (days 1 and 4). In this model, VEGF expressed from the CHO cells induces angiogenesis within the Matrigel® plug. Plugs are excised on day 5 and assayed for hemoglobin using Drabkin's reagent, as a measure of the degree of angiogenesis.

For the molecule `O=C(NOCC1CC1)c1ccc(F)c(F)c1Nc1ccc(I)cc1Cl` [CI-1040], in the test on ST88 cells [1], the “effect on proliferation (in words)” value is reported as “inhibited proliferation” and the “levels of phospho-ERK (in words)” value is “decreased levels of phospho-ERK”. In the test on NF90 cells, the “effect on proliferation (in words)” value is given as “inhibited proliferation” and the “levels of phospho-ERK (in words)” value is “decreased levels of phospho-ERK”.
In the case of `Cn1c(Nc2ccc(C(F)(F)F)cc2)nc2cc(Oc3ccnc(-c4ncc(C(F)(F)F)[nH]4)c3)ccc21` [Example 1], the “levels of phospho-MEK after treatment (in words)” value in test [2] (ST88 cells) was “decreased levels”. For the same molecule, the negative logarithm of the EC50 (pEC50) in test [2] (ST88 cells (NF1+/−)) is 6.82; in test [3] (ST88 cells (NF1+/−)) it was 6.73; with ST88 cells [4] (ST88 cells (NF1+/−)), 6.68. The “levels of phospho-ERK after treatment (in words)” value in test [3] (ST88 cells) is “decreased levels”. In the test on ST88 cells [4] (ST88 cells), the “effect on proliferation (in words)” value is “inhibition of proliferation”. In addition, the “dose giving maximal suppression of hemoglobin content” value in test [5] is 50 mg/kg. For the same molecule, in test [5], the “hemoglobin content of Matrigel plug (in words)” value is “dose-dependent decrease”.

The pEC50 is the negative decadic logarithm of the EC50, by convention in mol/L.
